The results in this text go back to patent EP0637448A1, “Combinations of glycinamide or N-acetylglycinamide with analgesic compounds” (ISCOFAR SAS DI PAOLO E. GHIRARDI, priority 1993, dated 1995).

The structures appear in SMILES notation. Where two headings read alike, the source gives them in different places.

Data set [1] relates to phenylquinone induced writhing. In words: writhing test (phenylquinone-induced abdominal contractions). To be noted: for time of maximum effect after administration: ED50 dose given orally, effect as a function of time; for ED50: Mus musculus, read-out: ED₅₀ ± D.5 (anti-writhing action). It counts as in vivo, mouse. As for the experimental part: In order to experimentally test the above analgesic effect, which involves the µ and K type opiate receptors, the writhing test (literally: "induced abdominal contracture test") with […] of phenylquinone or paraphenylbenzoquinone (0.02% in 5% ethanol), has been choosed. Since phenylquinone is a photosensitive, said solution was kept dark bottle at 37 °C with continuous stirring. Groups of animals were treated orally with different doses of glycinamide at various time intervals before phenylquinone being administered by intraperitoneal way. For each experimental point 3 groups of 10 animals each were tested. After the phenylquinone administration, the animals were placed in glass cylinders and the abdominal contractions were recorded for 20 minutes starting form the fifth minute following the intraperitoneal administration of phenylquinone. As an average, about 50±15 abdominal contractions were recorded during the surveying time. The choice of phenylquinone as the writhing inductor is justified by the greater qualitative constance and higher number of contractions obtainable when compared with other inductors such as acetylcholine, acetic acid, ethacrynic acid, air, etc. [table]
Background: Writhing tests count abdominal constrictions after an irritant is injected.

In the next data set the test system is EDEMA FROM CARRAGEENIN
Description: carrageenin edema test. It counts as in vivo, mouse. To be noted: for ED50: NSAID alone, per os 60 minutes before carrageenin, edema volume after 3 hours, read-out: ED₅₀ ± S.D. (dose reducing edema by 50%). In general terms: In the carrageenan paw model, swelling and tenderness develop within hours.

Data set [2] can be described thus: acute oral toxicity (LD50). Format: in vivo. To be noted: in vivo, po; mouse, orally; read-out: LD₅₀.
The next data set concerns mouse. In words: acute oral toxicity (LD50). Format: in vivo. To be noted: orally.
Where [3] appears, read: substance alone, orally, mouse, phenylquinone 2 mg/kg i.p.

For the molecule `NCC(=O)O` [glycine], in data set [1] (test not given), the “enhancement of the action of peripheral analgesic drugs” value was “does not produce”.
Turning to `O=C(O)Cc1ccccc1Nc1c(Cl)cccc1Cl` [Sodium diclofenac], the “time of maximum effect after administration” value in data set [1] (mouse) amounted to 45 min. Also, the ED50 in data set [1] (+ Glycinamide HCl 15 mg/kg orally 13 minutes before testing, mouse) came to 1.86 ± 1.15 mg/kg; in data set [1] (+ Glycinamide HCl 25 mg/kg orally 13 minutes before testing, mouse) it was 1.12 ± 1.2 mg/kg; in data set [1] (+ Glycinamide HCl 50 mg/kg orally 13 minutes before testing, mouse), 1.05 ± 1.31 mg/kg; in data set [1] (+ Glycinamide HCl 75 mg/kg orally 13 minutes before testing, mouse), 1.02 ± 1.26 mg/kg; in data set [1] (+ Glycinamide HCl 100 mg/kg orally 13 minutes before testing, mouse) it was 1.28 ± 1.16 mg/kg; in data set [1] (setting [3]) it was 2.93 ± 1.43 mg/kg. Further, in the data set on EDEMA FROM CARRAGEENIN (mouse), the ED50 was found to be 10 ± 3.6 mg/kg.
Regarding `CC(=O)Oc1ccccc1C(=O)O` [Acetylsalicylic acid], the ED50 in the data set with EDEMA FROM CARRAGEENIN (mouse) stood at 5.1 ± 0.8 mg/kg.
As to `COc1ccc2c(c1)c(CC(=O)O)c(C)n2C(=O)c1ccc(Cl)cc1` [Indomethacin], the ED50 with EDEMA FROM CARRAGEENIN (mouse) was 84 ± 12 mg/kg.
For `CC(=O)NCC(N)=O` [N-acetylglycinamide], in data set [1] (mouse, in vivo), the “peripheral analgesic activity compared with glycinamide” value is “shared both qualitatively and quantitatively”. Also, in data set [2], the LD50 was more than 2000 mg/kg.
As for `CC(C)Cc1ccc(C(C)C(=O)O)cc1` (stereo not drawn) [Ibuprofen], the ED50 with EDEMA FROM CARRAGEENIN (mouse) came to 20 ± 2.4 mg/kg.
In the case of `NCC(N)=O` [Glycinamide], in data set [1] (25 mg/kg of glycinamide, based on writhing test), the “enhancement of the antiphlogistic and visceral peripheral analgesic effect of sodium diclofenac” value was “at least 2.5 times”. Further, the “time of maximum effect after administration” value in data set [1] (mouse) is listed as “about 13 minutes”. Also, in data set [1] (setting [3]), the ED50 was approximately 82.9 mg/kg. The “reduction (anti-writhing action, peak)” value in data set [1] (orally administered dose of 200 mg/kg, mouse) is on record as 81.3%. Besides, the “enhancement of the effect of sodium diclofenac” value in the data set on EDEMA FROM CARRAGEENIN (50 mg/kg of glycinamide, based on the carrageenin edema test) is given as “at least 2.8 times”. Besides, the anti-edema effect result with EDEMA FROM CARRAGEENIN (glycinamide alone, 50 mg/kg orally 50 minutes before carrageenin, mouse) is on record as “does not develop an anti-edema effect”. In the data set with mouse, the LD₅₀ entry is reported as “higher than 2 g/Kg”.
